Test results: US20080076788A1, “SOLID FORMS OF (3'-CHLOROBIPHENYL-4-YL)(1-(PYRIMIDIN-2-YL)PIPERIDIN-4-YL)METHANONE AND METHODS OF THEIR USE” (priority 2006, published 2008)

What was measured:
[1] = target: T1, Na^+-dependent proline transporter (Homo sapiens, UniProt Q99884); conditions: statement in words, refers to U.S. patent application Ser. Nos. 11/433,057 and 11/433,626; cited from earlier work
T1 sequence (Q99884 1-636): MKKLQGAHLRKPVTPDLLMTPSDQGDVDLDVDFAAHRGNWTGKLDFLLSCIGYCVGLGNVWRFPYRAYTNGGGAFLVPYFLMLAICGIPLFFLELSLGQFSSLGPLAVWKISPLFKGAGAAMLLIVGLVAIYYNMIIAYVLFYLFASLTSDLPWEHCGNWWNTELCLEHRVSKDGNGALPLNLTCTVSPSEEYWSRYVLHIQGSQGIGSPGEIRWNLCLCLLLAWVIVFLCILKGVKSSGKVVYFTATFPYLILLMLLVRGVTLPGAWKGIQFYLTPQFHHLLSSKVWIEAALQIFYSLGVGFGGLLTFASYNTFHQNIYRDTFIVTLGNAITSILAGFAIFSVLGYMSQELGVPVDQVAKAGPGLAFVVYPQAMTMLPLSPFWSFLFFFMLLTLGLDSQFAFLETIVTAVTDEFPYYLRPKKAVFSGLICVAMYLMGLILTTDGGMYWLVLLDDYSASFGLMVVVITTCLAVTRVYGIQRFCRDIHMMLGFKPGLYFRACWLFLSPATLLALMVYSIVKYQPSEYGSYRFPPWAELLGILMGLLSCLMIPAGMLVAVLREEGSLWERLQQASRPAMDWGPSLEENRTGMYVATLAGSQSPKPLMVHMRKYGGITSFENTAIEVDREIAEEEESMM

mice = test: Learning and memory in mice after administration of the compound; format: in vivo; conditions: administered to mice

## O=C(c1ccc(-c2cccc(Cl)c2)cc1)C1CCN(c2ncccn2)CC1 [(3′-chlorobiphenyl-4-yl)(1-(pyrimidin-2-yl)piperidin-4-yl)methanone]
other
  melting point: ~ 117 °C
[1]
  inhibition of the Na+-dependent proline transporter: inhibitor
mice
  effect on learning and memory: increase learning and memory
